The source made the active and inactive calls. The calls are words filed in the database; no cut-off is given here.

Assay [1] is described as follows: Inhibition of Staphylococcus aureus pyruvate carboxylase expressed in Escherichia coli BL21(DE3) assessed as FVB-OAA adduct formation using pyruvate as substrate by Fast violet B assay.
Assay [2] is described as follows: Inhibition of full length Staphylococcus aureus pyruvate carboxylase expressed in Escherichia coli BL21(DE3) assessed as formation of oxaloacetic acid using pyruvate, HCO3-, ATP and NADH as substrate by malate dehydrogenase coupled enzyme assay.
For assay [3], the species on record is Homo sapiens. As to the kind of experiment: Inhibition of MDH (unknown origin) at 200 uM using oxaloacetate as substrate by spectrophotometric analysis.
For assay [4], the species on record is Homo sapiens. As to the kind of experiment: Inhibition of MDH (unknown origin) at 1 mM using oxaloacetate as substrate by spectrophotometric analysis.
For assay [5], the target named is 72 kDa type IV collagenase (Homo sapiens) (UniProt P08253). As to the kind of experiment: Inhibition of human matrix metalloprotease 2 at 50 uM treated with enzyme for 30 mins prior to substrate addition using omniMMP fluorogenic substrate measured for 30 mins by fluorescence based assay.
Assay [6] deals with Carbonic anhydrase 2 (Homo sapiens) (UniProt P00918). In words: Increase in human carbonic anhydrase 2 activity at 200 uM treated with enzyme for 10 mins prior to substrate addition using p-nitrophenyl acetate as substrate measured for 20 mins.
Assay [7] deals with Staphylococcus aureus. As to the kind of experiment: (§1) Competitive inhibition of Staphylococcus aureus pyruvate carboxylase expressed in Escherichia coli BL21(DE3) treated with pyruvate as substrate prior to HCO3-, ATP and NADH addition by Michelis-Menten based double-reciprocal plot analysis.
Assay [8] relates to Staphylococcus aureus. As to the kind of experiment: Non-competitive inhibition of Staphylococcus aureus pyruvate carboxylase expressed in Escherichia coli BL21(DE3) treated with ATP as substrate prior to HCO3-, ATP and NADH addition by Michelis-Menten based double-reciprocal plot analysis.
For assay [9], the target named is Carbonic anhydrase 2 (Homo sapiens) (UniProt P00918). As to the kind of experiment: Inhibition of human carbonic anhydrase 2 at 200 uM treated with enzyme for 10 mins prior to substrate addition using p-nitrophenyl acetate as substrate measured for 20 mins.
The target in assay [10] is L-lactate dehydrogenase (Homo sapiens) (UniProt V9HWB9). In words: Substrate activity at lactate dehydrogenase (unknown origin) at 2 mM in presence of NADH.
Assay [11] in a line: as §1.
Assay [12] in a line: Mixed-type of inhibition of Staphylococcus aureus pyruvate carboxylase expressed in Escherichia coli BL21(DE3) treated with ATP as substrate prior to HCO3-, ATP and NADH addition by Michelis-Menten based double-reciprocal plot analysis.
The target in assay [13] is L-lactate dehydrogenase (Homo sapiens) (UniProt V9HWB9). As to the kind of experiment: Inhibition of lactate dehydrogenase (unknown origin) at 2 mM using pyruvate as substrate in presence of NADH.

Sequence of 72 kDa type IV collagenase (Homo sapiens) (P08253 110-660 limits assumed): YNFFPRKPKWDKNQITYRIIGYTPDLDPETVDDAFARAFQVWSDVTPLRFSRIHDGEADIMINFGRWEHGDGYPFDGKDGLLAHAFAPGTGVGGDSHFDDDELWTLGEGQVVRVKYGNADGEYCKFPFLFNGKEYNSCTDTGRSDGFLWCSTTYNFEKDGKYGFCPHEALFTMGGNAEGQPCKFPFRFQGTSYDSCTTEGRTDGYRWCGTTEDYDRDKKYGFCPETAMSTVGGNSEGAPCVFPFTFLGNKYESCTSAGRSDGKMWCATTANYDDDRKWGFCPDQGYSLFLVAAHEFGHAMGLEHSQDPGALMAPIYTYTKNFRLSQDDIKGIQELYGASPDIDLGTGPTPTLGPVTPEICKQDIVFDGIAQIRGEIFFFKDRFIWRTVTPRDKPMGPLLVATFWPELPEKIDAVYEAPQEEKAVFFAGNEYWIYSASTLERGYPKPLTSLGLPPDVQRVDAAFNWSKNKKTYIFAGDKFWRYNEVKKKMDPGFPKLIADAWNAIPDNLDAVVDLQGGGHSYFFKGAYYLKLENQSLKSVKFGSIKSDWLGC

For the compound `O=C(O)C(O)Cc1ccccc1` (centres undefined), in assay [1], the half-inhibitory concentration (IC50) is > 3000 µM.

Turning to `Cc1ccc(/C=C(\O)C(=O)O)cc1C`, the IC50 in assay [1] is 98 µM; in assay [2], 38 µM. Further, the inhibition in assay [3] was determined as 3%.

With `O=C(O)/C(O)=C/c1ccc(F)cc1`, the IC50 is 100 µM in assay [1] and 30 µM in assay [2]. Besides, the inhibition in assay [4] is 78%; in assay [3], 23%.

As for `O=C(O)/C(O)=C/c1ccc(C(F)(F)F)cc1`, the results for the 50% inhibitory concentration (IC50) in [1] and in [2] were 130 µM and 96 µM, respectively.

For the compound `O=C(O)/C=C/c1cccc(/C=C(\O)C(=O)O)c1`, in assay [1], the IC50 was 118 µM.

`O=C(O)/C(O)=C/c1ccc(Cl)cc1`: the IC50 was determined as 280 µM in [1] and 220 µM in assay [2]. Besides, the inhibition in assay [4] stood at 12%; in assay [3], 2%.

`O=C(O)/C(O)=C/c1ccc(/C=C(\O)C(=O)O)cc1`: the IC50 in assay [1] came out at 3 µM; in assay [2] it was 11 µM. Moreover, the inhibition entry in assay [5] was “Active”. Also, in assay [6], the result was Active.

`O=C(O)C(=O)CCc1ccccc1`: the IC50 in assay [1] is > 2000 µM.

As to `O=C(O)C(=O)O`, the inhibition result in [7] and in [8] was “Active” throughout.

As for `O=C(O)C(=O)Cc1ccccc1[N+](=O)[O-]`, the IC50 in [1] and in [2] was > 2000 µM each time.

With `O=C(O)/C(O)=C/c1ccc(-c2ccsc2)cc1`, in [1], the IC50 stood at 48 µM. Besides, the inhibition entry in [5] is “Active”.

On to `O=C(O)C(=O)Cc1ccccc1Br`, for which the IC50 in [1] and in [2] was > 1000 µM each time.

As for `O=C(O)C(=O)CC1CCCCC1`, in assay [1], the half-inhibitory concentration (IC50) is > 1000 µM.

In the case of `Cc1cccc(/C=C(\O)C(=O)O)c1`, the IC50 in assay [1] is 360 µM; in [2], 23 µM. For the same compound, the inhibition in assay [4] stood at 74%; in [3] it was 13%.

Consider `O=C(O)/C=C/c1ccc(/C=C(\O)C(=O)O)cc1`, for which the IC50 in [1] was determined as 58.6 µM. Besides, in [5], the inhibition result was “Active”. Moreover, the result in assay [6] was Active.

As to `COc1ccc(/C=C(\O)C(=O)O)cc1`, the results for the IC50 in [1] and in [2] were 170 µM and 56 µM, respectively.

As to `O=C(O)/C(O)=C/c1ccc2ccccc2n1`, the inhibition result in assay [9], in assay [5] and in assay [13] was “inactive” throughout. The outcome in assay [10] was inactive. Moreover, the results for the IC50 in [1] and in assay [2] were 4.3 µM and 3.2 µM, respectively. The Ki in assay [11] was 740 nM; in assay [12], 5.2 to 7.1 µM. The inhibition in assay [4] worked out at 4%.

`O=C(O)/C(O)=C/c1ccc(O)cc1`: the outcome in assay [10] was Active. Moreover, the IC50 in [1] turned out to be 67 µM; in assay [2], 22 µM. For the same compound, the inhibition in [4] is 9%.

Consider `O=C(O)/C(O)=C/c1ccc(Br)cc1`, for which the results for the IC50 in assay [1] and in [2] were 200 µM and 81 µM, respectively. Besides, the inhibition in assay [4] came to 9%; in assay [3], 0%.

As for `O=C(O)C(=O)c1ccccc1` [BENZOYL FORMIC ACID], the IC50 in assay [1] is > 3000 µM.

As for `Cc1ccc(/C=C(\O)C(=O)O)cc1`, the concentration for half-maximal inhibition (IC50) in assay [1] is 210 µM; in [2] it was 140 µM. Further, the inhibition result in assay [7] and in assay [8] was “Active” each time. Moreover, the inhibition is 10% in [4] and -3% in [3].

For `C=CCCC(=O)C(=O)O`, the IC50 in assay [1] is > 2000 µM.

For the compound `O=C(O)/C(O)=C/c1ccc([N+](=O)[O-])cc1`, the IC50 in [1] and in assay [2] was > 1000 µM throughout.

On to `O=C(O)/C(O)=C/c1ccccc1`, for which the IC50 in [1] was determined as 240 µM; in [2], 130 µM. Besides, the inhibition in [4] amounted to 78%; in assay [3], 0%.

Values taken from ChEMBL document CHEMBL4393736, “Evaluation of α-hydroxycinnamic acids as pyruvate carboxylase inhibitors” (Bioorg Med Chem, 2019).
